Test results: article PMC3942691, “The Dipeptide Monoester Prodrugs of Floxuridine and Gemcitabine—Feasibility of Orally Administrable Nucleoside Analogs” (Pharmaceuticals, 2014)

Key:
Assay type in all cases: cell-based
[1] = test system: Panc-1 cells; assay: Cell proliferation assay (XTT) in Panc-1 cells
Experimental: (§1) Cell proliferation studies were conducted with Panc-1 and AsPC-1 cells. The cells were seeded into 96-well plates at 80,000 cells per well and allowed to attach/grow for 48 h before drug solutions were added. The culture medium (DMEM +10% fetal bovine serum or RPMI-1640 +10% fetal bovine serum) was removed and the cells were gently washed once with sterile pH 6.0 uptake buffer. Floxuridine, 5′-L-phenylalanyl-L-tyrosyl-floxuridine, gemcitabine and 5′-L-phenylalanyl-L-tyrosyl-gemcitabine were 2-fold serially diluted in pH 6.0 uptake buffer from 5 to 0.078 mmol/L. Buffer alone was used as a 100% viability control. The wash buffer was removed and 30 µL drug solution per well was added and incubated at 37 °C for 2 h in the cell incubator. After this time, the drug solutions were removed and the cells were again gently washed twice with sterile uptake buffer. The culture medium was then added to each well after washing. The cells were allowed to recover for 24 h before evaluating cell viability via 2,3-bis[2-methoxy-4-nitro-5-sulfophenyl]-2H-tetrazolium-5-carboxanilide inner salt (XTT) assays. A mixture (30 µL) containing XTT (1 mg/mL) in sterile RPMI-1640 without phenol red and phenazine methosulfate (N-methyldibenzopyrazine methyl sulfate in sterile PBS, 0.383 mg/mL) reagents were added to the cells and incubated at 37 °C for 1 h, after which the absorbance at 450 nm was read. The concentrations required to inhibit cell growth by 50% (GI50) were calculated using GraphPad Prism version 3.0 by nonlinear data fitting.

[2] = test system: AsPC-1 cells; assay: Cell proliferation assay (XTT) in AsPC-1 cells; conditions: 24 h recovery
Experimental: as §1

[3] = test system: Panc-1 cells; assay: Uptake study in Panc-1 cells; conditions: 0.1 mM, 1 h
Experimental: Caco-2, Panc-1, and AsPC-1 cells were grown on a 6-well plate for 18, 6, and 6 days, respectively. Wells were rinsed with MES (pH 6.0) buffer twice. Fresh MES buffer was reapplied to each well and incubated at 37 °C for 15 min. Each drug was individually tested from freshly prepared solutions in MES buffer (0.1 mM, total 0.3 mL) with the presence and the absence of 10 mM glycyl-proline (Gly-Pro). The solution was placed in each well and incubated at 37 °C for 60 min. Drug solution was removed and 3 mL of ice-cold PBS was immediately placed in each well. Each well was rinsed with 3 mL of cold-PBS twice and 0.5 mL of methanol/H2O (1:1) containing 0.1% TFA was placed in each well. The cell suspension was collected and transferred to a new tube. Those tubes were spun at 1,000 × g at 4 °C for 5 min. The supernatant was mixed with equal amount of water with either 0.1% formic acid or 0.1% ammonium hydroxide for LC-MS analysis. The cell pullets were used to determine protein amount with the Bio-Rad DC Protein Assay using bovine serum albumin as a standard.
The LC-MS analytical method of 5′-mono amino acid ester prodrugs of floxuridine has been reported previously. The LC-MS analysis of dipeptide monoester prodrugs of floxuridine and gemcitabine along with their parent drugs was modified and performed in a similar manner. Briefly, LC-MS analysis of the uptake drug amount was performed in triplicate on LCMS-2010EV (Shimadzu Scientific Instruments, Kyoto, Japan) equipped with an ESI (electrospray ionization) source. The Shimadzu LC-MS system consisting of Shimadzu LC-20AD pumps with DGU-20A in-line vacuum degasser units, and SIL-20A HT autosampler with an InertSustain C-18, 2.1 × 50 mm, 3 µm particle size, (GL Sciences, Torrance, CA, USA) was used for the separation and the effluent from the column was introduced directly to the ionization source. The system was controlled by Shimadzu LCMS solution software (version 3) to collect and process data. All samples were run with Solvent A and Solvent B with Solvent B gradient changing from 0%–90% at a rate of 13.8%/min over a 22 min run. The mobile phase consisted of 0.1% TFA/water (Solvent A) and 0.1% TFA/acetonitrile (Solvent B) for gemcitabine, gemcitabine prodrug and floxuridine prodrug. The mobile phase consisted of 0.1% ammonium hydroxide/water (Solvent A) and 0.1% ammonium hydroxide /acetonitrile (Solvent B) for floxuridine. The ESI probe was operated with a detector voltage of 1.5 kV, CDL temperature of 250 °C, heat block of 200 °C, and nebulizing gas flow of […] in positive mode for gemcitabine prodrugs and their metabolites. The drying gas was N2 delivered at 0.1 MPa.

[4] = Homo sapiens, PANC-1, 2 h exposure, 24 h recovery, XTT
[5] = Homo sapiens, ASPC1, 2 h exposure

In the case of `NC(Cc1ccccc1)C(=O)NC(Cc1ccc(O)cc1)C(=O)OCC1OC(n2cc(F)c(=O)[nH]c2=O)CC1O` [5′-L-Phenylalanyl-L-tyrosyl-floxuridine], the GI50 [1, 4] is reported as 3 ± 0.3 mM, the GI50 [2, 5] is reported as 4.2 ± 0.1 mM and the “Prodrug, share of uptake” value [3] is reported as 98%.

With “2′,2′-difluoro-2′-deoxyuridine [Gemcitabine]” the GI50 ([1]; tested 5 to 0.078 mmol/L) was > 5 mM, the GI50 ([2]; 2 h exposure) was 10.2 ± 1.6 mM and the “Parent drug, share of uptake” value [3] was 20%.

With `O=c1[nH]c(=O)n([C@H]2C[C@H](O)[C@@H](CO)O2)cc1F` [Floxuridine, 5-fluoro-2′-deoxyuridine] the GI50 ([1]; Homo sapiens, PANC-1, tested 5 to 0.078 mmol/L) was > 5 mM and the uptake amount [3] was “not observed”.

`Nc1ccn(C2OC(COC(=O)C(Cc3ccc(O)cc3)NC(=O)C(N)Cc3ccccc3)C(O)C2(F)F)c(=O)n1` [5′-L-Phenylalanyl-L-tyrosyl-gemcitabine] was tested, and the GI50 [1, 4] was 3.2 ± 0.7 mM, the GI50 [2, 5] was 5 ± 0.3 mM and the “Prodrug, share of uptake” value [3] was 9%.
